Test results reported in the NIST ThermoML archive (doi:10.1021/je020189p).
Several values for one entry are separate records, joined by “and”; a condition that tells them apart may be missing. Equal entries are not always repeated.

[Br][Gd]([Br])[Br] [gadolinium bromide (GdBr3)]
Conditions	vapor or sublimation pressure
895 K, Crystal	3.31e-05 kPa
910 K, Crystal	4.17e-05 kPa
914 K, Crystal	6.31e-05 kPa
917 K, Crystal	7.76e-05 kPa
919 K, Crystal	8.91e-05 kPa
920 K, Crystal	7.76e-05 kPa
926 K, Crystal	0.000112 kPa
928 K, Crystal	7.76e-05 kPa
929 K, Crystal	0.000105 kPa
932 K, Crystal	0.000138 kPa
934 K, Crystal	0.000135 kPa
937 K, Crystal	0.000166 kPa
941 K, Crystal	0.00017 kPa
945 K, Crystal	0.000155 kPa and 0.000204 kPa
947 K, Crystal	0.000234 kPa
951 K, Crystal	0.000251 kPa and 0.000141 kPa
953 K, Crystal	0.000324 kPa
956 K, Crystal	0.000282 kPa and 0.000302 kPa
957 K, Crystal	0.000331 kPa and 0.000224 kPa
959 K, Crystal	0.000324 kPa
962 K, Crystal	0.000447 kPa
964 K, Crystal	0.000398 kPa
965 K, Crystal	0.000389 kPa
967 K, Crystal	0.000468 kPa
968 K, Crystal	0.000324 kPa and 0.000282 kPa
969 K, Crystal	0.000468 kPa and 0.000575 kPa
971 K, Crystal	0.00049 kPa
973 K, Crystal	0.00055 kPa
974 K, Crystal	0.00055 kPa
977 K, Crystal	0.000759 kPa
979 K, Crystal	0.000468 kPa and 0.000676 kPa and 0.000427 kPa
980 K, Crystal	0.000759 kPa
981 K, Crystal	0.000708 kPa
983 K, Crystal	0.000794 kPa
984 K, Crystal	0.000562 kPa
986 K, Crystal	0.000891 kPa
987 K, Crystal	0.001 kPa
988 K, Crystal	0.000933 kPa
989 K, Crystal	0.000708 kPa
990 K, Crystal	0.00107 kPa and 0.000617 kPa and 0.00115 kPa
993 K, Crystal	0.0011 kPa
994 K, Crystal	0.0011 kPa
996 K, Crystal	0.00123 kPa
997 K, Crystal	0.00145 kPa
999 K, Crystal	0.00102 kPa and 0.00155 kPa
1000 K, Crystal	0.00138 kPa
1001 K, Crystal	0.00155 kPa
1002 K, Crystal	0.000912 kPa
1003 K, Crystal	0.00148 kPa
1004 K, Crystal	0.00158 kPa
1006 K, Crystal	0.00162 kPa
1008 K, Crystal	0.00141 kPa and 0.002 kPa
1011 K, Crystal	0.00219 kPa and 0.002 kPa
1012 K, Crystal	0.00195 kPa
1014 K, Crystal	0.00245 kPa and 0.00219 kPa and 0.00135 kPa
1015 K, Crystal	0.0017 kPa and 0.00219 kPa
1018 K, Crystal	0.00191 kPa and 0.00275 kPa
1019 K, Crystal	0.00251 kPa
1020 K, Crystal	0.00288 kPa
1023 K, Crystal	0.00219 kPa and 0.00275 kPa
1025 K, Crystal	0.00302 kPa
1026 K, Crystal	0.002 kPa and 0.00347 kPa
1029 K, Crystal	0.00372 kPa and 0.00275 kPa
1030 K, Crystal	0.00363 kPa
1032 K, Crystal	0.00295 kPa and 0.00372 kPa
1034 K, Crystal	0.00398 kPa
1035 K, Crystal	0.00339 kPa
1036 K, Crystal	0.00468 kPa
1041 K, Crystal	0.00513 kPa and 0.00316 kPa
1043 K, Crystal	0.00513 kPa
1045 K, Crystal	0.00575 kPa
1049 K, Crystal	0.00661 kPa and 0.00417 kPa
1051 K, Crystal	0.00661 kPa
1057 K, Crystal	0.00776 kPa and 0.00832 kPa and 0.00525 kPa
1060 K, Liquid	0.00646 kPa
1067 K, Liquid	0.00933 kPa
1073 K, Liquid	0.00851 kPa
1074 K, Liquid	0.00741 kPa
1078 K, Liquid	0.012 kPa
1085 K, Liquid	0.0117 kPa
1087 K, Liquid	0.0145 kPa
1091 K, Liquid	0.0115 kPa
1096 K, Liquid	0.0158 kPa
1098 K, Liquid	0.0191 kPa
1099 K, Liquid	0.0138 kPa
1105 K, Liquid	0.0204 kPa
1108 K, Liquid	0.0178 kPa and 0.0234 kPa
1114 K, Liquid	0.024 kPa
1119 K, Liquid	0.0229 kPa and 0.0302 kPa
1123 K, Liquid	0.0282 kPa
1128 K, Liquid	0.0372 kPa
1130 K, Liquid	0.0302 kPa
1138 K, Liquid	0.0468 kPa
1140 K, Liquid	0.0427 kPa and 0.038 kPa
1148 K, Liquid	0.0513 kPa
1150 K, Liquid	0.049 kPa and 0.0617 kPa
1155 K, Liquid	0.0617 kPa
1159 K, Liquid	0.0589 kPa
1161 K, Liquid	0.0794 kPa
1168 K, Liquid	0.0708 kPa
1169 K, Liquid	0.0912 kPa
1179 K, Liquid	0.0912 kPa

[I][Gd]([I])[I] [gadolinium triiodide]
Crystal
Conditions	vapor or sublimation pressure
890 K	4.47e-05 kPa
891 K	5.62e-05 kPa
901 K	6.76e-05 kPa and 8.32e-05 kPa and 5.62e-05 kPa
905 K	8.51e-05 kPa
911 K	0.000112 kPa
912 K	8.91e-05 kPa
913 K	0.000112 kPa
914 K	0.000138 kPa and 8.91e-05 kPa
916 K	0.000112 kPa
918 K	0.000135 kPa
919 K	0.000155 kPa
920 K	0.000112 kPa
922 K	0.000178 kPa
924 K	0.000123 kPa
925 K	0.000178 kPa
927 K	0.000174 kPa and 0.000151 kPa
928 K	0.000145 kPa and 0.000195 kPa and 0.000209 kPa
929 K	0.000234 kPa
933 K	0.000191 kPa
934 K	0.000269 kPa
936 K	0.0002 kPa
937 K	0.000282 kPa and 0.000251 kPa
938 K	0.000324 kPa
939 K	0.000295 kPa
942 K	0.000347 kPa and 0.000269 kPa
943 K	0.000245 kPa
944 K	0.000355 kPa
946 K	0.000398 kPa
947 K	0.000389 kPa
948 K	0.000372 kPa
951 K	0.000331 kPa
952 K	0.00049 kPa
954 K	0.000417 kPa
955 K	0.000525 kPa and 0.000603 kPa
957 K	0.000575 kPa and 0.000457 kPa
959 K	0.000447 kPa
962 K	0.000708 kPa
964 K	0.000794 kPa
966 K	0.000575 kPa and 0.000794 kPa and 0.000631 kPa
967 K	0.000724 kPa
970 K	0.000912 kPa
973 K	0.00107 kPa
974 K	0.00102 kPa
975 K	0.00107 kPa and 0.000891 kPa
978 K	0.000832 kPa and 0.00107 kPa
979 K	0.00126 kPa
983 K	0.00135 kPa and 0.00115 kPa
984 K	0.00145 kPa
985 K	0.00158 kPa
987 K	0.00162 kPa
988 K	0.00115 kPa
990 K	0.00155 kPa
992 K	0.00174 kPa and 0.00141 kPa
993 K	0.00191 kPa and 0.00204 kPa
995 K	0.00214 kPa
997 K	0.00138 kPa
1002 K	0.00251 kPa and 0.00219 kPa
1003 K	0.00269 kPa
1006 K	0.00191 kPa
1011 K	0.00331 kPa and 0.00282 kPa
1012 K	0.00355 kPa
1019 K	0.00339 kPa
1021 K	0.00389 kPa
1023 K	0.00676 kPa
1026 K	0.00407 kPa
1033 K	0.00871 kPa and 0.00537 kPa
1040 K	0.00603 kPa
1042 K	0.00692 kPa
1045 K	0.0126 kPa
1052 K	0.00871 kPa
1054 K	0.00977 kPa
1055 K	0.017 kPa
1064 K	0.0219 kPa
1066 K	0.0135 kPa and 0.0145 kPa
1074 K	0.0302 kPa
1076 K	0.0209 kPa
1082 K	0.0214 kPa
1083 K	0.0398 kPa
1086 K	0.0282 kPa
1094 K	0.0537 kPa
1097 K	0.0372 kPa
1102 K	0.0676 kPa
